Laboratory results reported in ChEMBL document CHEMBL1150812, “New taxane analogues from the needles of Taxus canadensis” (J Nat Prod, 2001).

Test system: MCF7
Assay: Antiproliferative activity against human MCF7 cells after 72 hrs by MTT assay
Type: functional, cell-based
Settings: MCF7, 72 h

Row | IC50 | Structure (SMILES)
1 | 80 nM | C/C=C(\C)C(=O)N[C@@H](c1ccccc1)[C@@H](O)C(=O)O[C@H]1C[C@@]2(O)[C@@H](OC(=O)c3ccccc3)[C@@H]3[C@]4(OC(C)=O)CO[C@@H]4C[C@@H](O)[C@@]3(C)C(=O)C(=O)C(=C1C)C2(C)C
2 | 10 nM | CC(=O)O[C@H]1C[C@H]2OC[C@@]2(OC(C)=O)[C@H]2[C@H](OC(=O)c3ccccc3)[C@]3(O)C[C@H](OC(=O)[C@H](O)[C@@H](NC(=O)c4ccccc4)c4ccccc4)C(C)=C([C@@H](O)C(=O)[C@]12C)C3(C)C
3 | 64 nM | CC(=O)O[C@@]12CO[C@@H]1C[C@H](O)[C@@]1(C)C(=O)C(=O)C3=C(C)[C@@H](OC(=O)[C@H](O)[C@@H](NC(=O)c4ccccc4)c4ccccc4)C[C@@](O)([C@@H](OC(=O)c4ccccc4)[C@H]21)C3(C)C

Row | Structure (SMILES) | IC50
4 | C/C=C(\C)C(=O)N[C@@H](c1ccccc1)[C@@H](O)C(=O)O[C@H]1C[C@@]2(O)[C@@H](OC(=O)c3ccccc3)[C@@H]3[C@]4(OC(C)=O)CO[C@@H]4C[C@H](O)[C@@]3(C)C(=O)[C@H](OC(C)=O)C(=C1C)C2(C)C [CEPHALOMANNINE] | 6 nM
